ChEMBL document CHEMBL5137081, “N-Heterocyclic 3-Pyridyl Carboxamide Inhibitors of DHODH for the Treatment of Acute Myelogenous Leukemia” (J Med Chem, 2022)
Values after ≈ are worked out from the molar mass of the structure shown.

Experiments:
[1] = Solubility of compound at pH 7 by HPLC analysis; assay type: physicochemical; details: buffer
[2] = target: Dihydroorotate dehydrogenase (quinone), mitochondrial (Homo sapiens, UniProt Q02127); assay: Inhibition of His fused human DHODH expressed in Escherichia coli using DHO as substrate by DCIP absorbance based colorimetry assay
Dihydroorotate dehydrogenase (quinone), mitochondrial, sequence (Q02127 whole entry, the tested form may be a part): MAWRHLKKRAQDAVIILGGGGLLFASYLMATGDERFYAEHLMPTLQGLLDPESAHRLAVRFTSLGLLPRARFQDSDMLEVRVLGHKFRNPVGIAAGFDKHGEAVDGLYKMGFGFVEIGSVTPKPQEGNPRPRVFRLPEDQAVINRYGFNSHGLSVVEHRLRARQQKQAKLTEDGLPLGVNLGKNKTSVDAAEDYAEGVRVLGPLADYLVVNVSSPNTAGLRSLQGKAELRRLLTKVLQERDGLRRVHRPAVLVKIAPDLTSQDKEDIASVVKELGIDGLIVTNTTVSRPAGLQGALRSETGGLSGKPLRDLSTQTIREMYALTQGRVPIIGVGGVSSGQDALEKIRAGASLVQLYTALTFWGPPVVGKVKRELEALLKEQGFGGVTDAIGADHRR

[3] = Metabolic stability in human liver microsome assessed as intrinsic clearance pretreated for 5 mins followed by NADPH addition and measured upto 60 mins by HPLC-MS/MS analysis; assay type: ADME; details: microsomes, 1.083 h, time < 65 min
[4] = Stability in human hepatocytes assessed as intrinsic clearance measured per 10^6 cells incubated upto 120 mins by LC-MS/MS analysis; assay type: ADME, cell-based, Hepatocyte; details: 2 h
MOLM-13 = assay: Antiproliferative activity against human MOLM-13 cells incubated for 72 hrs by CellTiter-Glo assay; assay type: functional, cell-based; details: MOLM-13, 72 h
MDR1 = assay: Efflux ratio of apparent permeability across basolateral to apical side over apical to basolateral side in dog MDCK-MDR1 cells; assay type: ADME, cell-based, Canis lupus familiaris

solubility [1] | IC50 [2] | CLH [3] | CLH [4] | IC50 (MOLM-13) | efflux ratio (MDR1) | Structure (SMILES)
51 µM (≈ 27.3 µg/mL) | 0.3 nM | 10 µL/min/mg | 51 µL/min/1e6 cells | 0.3 nM |  | CCn1c(CO)nn(-c2nc(O[C@@H](C)C(F)(F)F)c(C(=O)Nc3c(Cl)ccnc3OC)cc2F)c1=O
 | 14 nM |  |  | 13 nM |  | CCn1c(CO)nn(-c2nc(O[C@@H](C)C(F)(F)F)c(C(=O)Nc3ccc(C)nc3Cl)cc2F)c1=O
 | 2.3 nM |  |  | 3.6 nM |  | CCn1c(CO)nn(-c2nc(O[C@@H](C)C(F)(F)F)c(C(=O)Nc3c(F)cncc3Cl)cc2F)c1=O
> 400 µM | 2.4 nM | < 7.7 µL/min/mg | > 400 µL/min/1e6 cells | 4 nM |  | CCn1c(CO)nn(-c2nc(O[C@@H](C)C(F)(F)F)c(C(=O)Nc3c(C)ccnc3C(F)F)cc2F)c1=O
98 µM (≈ 49.5 µg/mL) | 5.2 nM | 9.1 µL/min/mg |  | 6.9 nM |  | CCn1c(CO)nn(-c2nc(O[C@@H](C)C(F)(F)F)c(C(=O)Nc3ncccc3Cl)cc2F)c1=O
61 µM (≈ 30.6 µg/mL) | 2.4 nM | 14 µL/min/mg | 61 µL/min/1e6 cells | 5 nM |  | CCn1c(CO)nn(-c2nc(O[C@@H](C)C(F)(F)F)c(C(=O)Nc3c(C)ccnc3F)cc2F)c1=O
381 µM (≈ 205 µg/mL) | 0.6 nM | 14 µL/min/mg | 381 µL/min/1e6 cells | 0.7 nM |  | CCn1c(CO)nn(-c2nc(O[C@@H](C)C(F)(F)F)c(C(=O)Nc3c(Cl)ccnc3Cl)cc2F)c1=O
373 µM (≈ 197 µg/mL) | 0.56 nM | < 7.7 µL/min/mg |  | 2.1 nM | > 30 | CCn1c(CO)nn(-c2nc(O[C@@H](C)C(F)(F)F)c(C(=O)Nc3c(C)cnc(OC)c3C)cc2F)c1=O
 | 11 nM | < 7.7 µL/min/mg |  | 13 nM |  | CCn1c(CO)nn(-c2nc(O[C@@H](C)C(F)(F)F)c(C(=O)Nc3ccnc(OC)c3Cl)cc2F)c1=O
 | 5.7 nM |  |  | 50 nM |  | CCn1c(CO)nn(-c2nc(O[C@@H](C)C(F)(F)F)c(C(=O)Nc3cc(C)cnc3Cl)cc2F)c1=O
< 4 µM | 0.2 nM | 10 µL/min/mg |  | 0.16 nM |  | CCn1c(CO)nn(-c2nc(O[C@@H](C)C(F)(F)F)c(C(=O)Nc3c(F)cccc3Cl)cc2F)c1=O
> 400 µM | 1.9 nM | < 7.7 µL/min/mg | > 400 µL/min/1e6 cells | 5.3 nM |  | CCn1c(CO)nn(-c2nc(O[C@@H](C)C(F)(F)F)c(C(=O)Nc3c(Cl)ccnc3C)cc2F)c1=O
< 4 µM | 2.8 nM | < 8 µL/min/mg |  | 6.5 nM |  | CCn1c(CO)nn(-c2nc(O[C@@H](C)C(F)(F)F)c(C(=O)Nc3cccnc3Cl)cc2F)c1=O
 | 10 nM |  |  | 26 nM | 17 | CCn1c(CO)nn(-c2nc(O[C@@H](C)C(F)(F)F)c(C(=O)Nc3cc(OC)ncc3C)cc2F)c1=O

Second part, the compound before the results:

Structure (SMILES) | solubility [1] | IC50 [2] | CLH [3] | CLH [4] | IC50 (MOLM-13) | efflux ratio (MDR1)
CCn1c(CO)nn(-c2nc(O[C@@H](C)C(F)(F)F)c(C(=O)Nc3c(F)cnc(OC)c3C#N)cc2F)c1=O |  | 16 nM |  |  | 1 nM | > 30
CCn1c(CO)nn(-c2nc(O[C@@H](C)C(F)(F)F)c(C(=O)Nc3ccccc3F)cc2F)c1=O |  | 6.1 nM | < 8 µL/min/mg |  | 5 nM | 
CCn1c(CO)nn(-c2nc(SC(C)C)c(C(=O)Nc3c(F)cccc3Cl)cc2F)c1=O |  | 302 nM | 15 µL/min/mg |  | 0.19 nM | 
CCn1c(CO)nn(-c2nc(OC3CC(F)(F)C3(F)F)c(C(=O)Nc3c(F)cccc3Cl)cc2F)c1=O (stereo not drawn) |  | 22 nM |  |  | 20 nM | 
CCn1c(CO)nn(-c2nc(NC(C)C)c(C(=O)Nc3c(F)cccc3Cl)cc2F)c1=O |  | 3600 nM |  |  | 200 nM | 
CCn1c(CO)nn(-c2nc(O[C@@H](C)C(F)(F)F)c(C(=O)Nc3ccncc3Cl)cc2F)c1=O | < 4 µM | 23 nM | 15 µL/min/mg |  | 61 nM | 
CCn1c(CO)nn(-c2nc(O[C@@H](C)C(F)(F)F)c(C(=O)Nc3cnccc3Cl)cc2F)c1=O |  | 4.7 nM | 45 µL/min/mg |  | 9.3 nM | 
CCn1c(CO)nn(-c2nc(OC(C)C)c(C(=O)Nc3c(F)cccc3Cl)cc2F)c1=O | 4 µM (≈ 1.87 µg/mL) | 0.5 nM | < 7.7 µL/min/mg |  | 0.2 nM | 
CCC(C)Nc1nccc(-c2cnc3sc(C)cn3c2=O)n1 (stereo not drawn) |  | 1400 nM |  |  |  | 
CCn1c(CO)nn(-c2nc(O[C@@H](C)C(F)(F)F)c(C(=O)Nc3c(F)cnc(OC)c3Cl)cc2F)c1=O | < 4 µM | 1.1 nM | < 7.7 µL/min/mg |  | 1.4 nM | 
CCn1c(CO)nn(-c2nc(OC3CCOC3)c(C(=O)Nc3c(F)cccc3Cl)cc2F)c1=O (racemic) |  | 32 nM |  |  | 25 nM | 
CCn1c(CO)nn(-c2nc(O[C@@H](C)C(F)(F)F)c(C(=O)Nc3c(C)cc(OC)nc3Cl)cc2F)c1=O |  | 0.8 nM |  |  | 3 nM | > 30
